Here are results for five compounds from patent publication US20050266577A1, “Ultrafiltration device for drug binding studies” (Millipore Corporation, priority 2002, published 2005).

Read-outs that look alike come from different tables or passages of the source.

For series [1] the following is noted: 10 nanomolar CE concentration in phosphate buffered saline. From the text: Microcon® Device Preparation:
The membrane to be tested was cut with the appropriate die cutter for the diameter of the device. The assembly consisted of placing the membrane on the support followed by addition of a gasket.
The collar is then placed on top of the assembly and sealed at a pressure varying from 65 to 100 psi.
Radioactive Analyte Preparation:
In order to prepare the analyte we used the following equation: [Concentration of Analyte]×[Volume needed for the experiment in microliter]×[Specific activity (Ci/mol)]×[1/Concentration (Ci/µl)].
The required volume of analyte was added to an appropriate volume of PBS. 200 µl of this preparation was used per sample.
Each membrane was tested in triplicate.
A first control plate, a Multiscreen® 96 well plate containing a heat sealed UPE (ultrahigh molecular weight polyethylene) composite cellulosic UF membrane, was used in a binding study.

A short description of series [2]: Non-specific binding, second control plate with ultrafiltrate diluent added. To be noted: 10 nanomolar CE in phosphate buffered saline.
Procedure: Each membrane was tested in triplicate. Each Microcon® device was placed in the appropriately labeled retentate/filtrate vial. If the membrane to be tested needed to be pre-wetted before proceeding with this process, one needed to be sure that the membrane received a final rinse with PBS prior to testing. 200 µl of analyte solution was added to each Microcon® device and spun to dryness (20-30 minutes) in a microcentrifuge (14000-×g). The membranes were rinsed by adding 25 µl to each device and spun in the microcentrifuge (14000-×g) for 10 minutes.
To determine the amount of non-specific binding to the membrane, the collar and gasket were removed and the membrane placed in a glass scintillation vial. Three ml of scintillation cocktail was added to each vial. A 20 µl aliquot of the original solution was added to 3 ml of scintillation cocktail for reference. Radioactivity (in DPM) was determined by liquid scintillation counting using 1 minute counting periods and a stored quench curve as described by the equipment manufacturer.
The ratio of radioactivity found on the membrane compared to the total amount of radioactivity added was reported as a percentage and was used to assess CE NSB of the membrane being tested.
[3] abbreviates: No support, table after second control plate (ultrafiltrate diluent).
The mark [4] stands for this setting: Support: UPE composite, second control plate, ultrafiltrate diluent added.

In the case of `C[C@H]1O[C@@H](O[C@H]2[C@@H](O)C[C@H](O[C@H]3[C@@H](O)C[C@H](O[C@H]4CC[C@@]5(C)[C@H](CC[C@@H]6[C@@H]5C[C@@H](O)[C@]5(C)[C@@H](C7=CC(=O)OC7)CC[C@]65O)C4)O[C@@H]3C)O[C@@H]2C)C[C@H](O)[C@@H]1O` [digoxin], the “% Non Specific Binding” value in series [1] (No support) was found to be 3%; in series [1] (Support: Non-woven 1), 3%; in series [1] (Support: Non-woven 2) it was 2%; in series [1] (Support: UPE composite), 47%; in series [2] (setting [3]), 3%; in series [2] (setting [4]) it was 92%.
As for `OC[C@@H](O)[C@@H](O)[C@H](O)[C@H](O)CO` [mannitol], the “% Non Specific Binding” value in series [1] (No support) turned out to be 2%; in series [1] (Support: Non-woven 1), 2%; in series [1] (Support: Non-woven 2), 1%; in series [1] (Support: UPE composite) it was 1%; in series [2] (setting [3]), 1%; in series [2] (setting [4]), 2%.
On to `CN(Cc1cnc2nc(N)nc(N)c2n1)c1ccc(C(=O)N[C@@H](CCC(=O)O)C(=O)O)cc1` [methotrexate], for which the “% Non Specific Binding” value was found to be 4% in series [1] (No support), 0% in series [1] (Support: Non-woven 1), 3% in series [1] (Support: Non-woven 2) and 16% in series [1] (Support: UPE composite).
In the case of `CC(C)NCC(O)COc1cccc2ccccc12` (centres unmarked) [proprananol], the “% Non Specific Binding” value in series [1] (No support) amounted to 4%; in series [1] (Support: Non-woven 1) it was 0%; in series [1] (Support: Non-woven 2), 2%; in series [1] (Support: UPE composite), 61%.
Consider `C[C@]12CC[C@H]3[C@@H](CCC4=CC(=O)CC[C@@]43C)[C@@H]1CC[C@@H]2O` [testosterone], for which the “% Non Specific Binding” value in series [1] (No support) was determined as 4%; in series [1] (Support: Non-woven 1), 1%; in series [1] (Support: Non-woven 2), 1%; in series [1] (Support: UPE composite) it was 101%; in series [2] (setting [3]), 3%; in series [2] (setting [4]), 80%.
